# Measured values published in paper PMC9877316, “Identification of a novel P2X7 antagonist using structure-based virtual screening” (Frontiers in Pharmacology, 2023).
# Entries after “also recorded” stand apart in the source; their conditions may differ. Like-named read-outs stand apart in the source and are kept apart here.
# Key:
# [1] = molecular target: T1, human P2X7 (Homo sapiens, UniProt Q99572); test: ATP-induced YoPro-1 dye uptake assay, human P2X7; assay type: cell-based; conditions: for reduction in ATP-induced dye uptake at human P2X7: 30 µM compound, 300 μM ATP
# T1 construct: expressed in transfected cells; host or cells: 1321N1 astrocytoma cells (compounds 1-17); HEK-293 cells stably expressing human P2X7 (gift of E. Adinolfi)
# T1 sequence (Q99572 1-595): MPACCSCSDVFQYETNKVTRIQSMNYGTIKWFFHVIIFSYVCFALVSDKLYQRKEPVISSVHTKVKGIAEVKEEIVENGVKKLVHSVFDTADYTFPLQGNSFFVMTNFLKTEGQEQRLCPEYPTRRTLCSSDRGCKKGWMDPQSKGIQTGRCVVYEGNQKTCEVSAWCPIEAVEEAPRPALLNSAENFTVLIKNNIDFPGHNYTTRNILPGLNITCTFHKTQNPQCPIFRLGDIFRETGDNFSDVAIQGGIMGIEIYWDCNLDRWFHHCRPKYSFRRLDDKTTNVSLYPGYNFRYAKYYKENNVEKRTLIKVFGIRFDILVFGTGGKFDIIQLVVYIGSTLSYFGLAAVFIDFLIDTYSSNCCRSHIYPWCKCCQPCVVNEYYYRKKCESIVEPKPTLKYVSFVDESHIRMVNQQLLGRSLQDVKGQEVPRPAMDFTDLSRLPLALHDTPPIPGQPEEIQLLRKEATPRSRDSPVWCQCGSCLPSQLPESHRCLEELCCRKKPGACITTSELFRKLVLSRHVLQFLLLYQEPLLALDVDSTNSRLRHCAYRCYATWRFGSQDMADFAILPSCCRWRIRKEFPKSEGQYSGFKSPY
# Method: (§1) 1321N1 astrocytoma cells and HEK-293 cells were cultured (at 37°C, 5% CO2) in Dulbecco’s modified Eagle’s medium (DMEM/F-12 with Glutamax) supplemented with 10% foetal bovine serum (FBS) and 200 unit/ml of penicillin and streptomycin antibiotics (Fisher Scientific). For stable cell line generation, cells were transfected using FuGene HD Transfection Reagent (Promega) according to the manufacturer’s protocol with plasmids encoding either human P2X4 with a C-terminal (His)10 tag ([Young et al., 2008]), human P2X7 with a C-terminal EYMPME tag (kindly provided by R.A. North) or rat P2X7 C-terminally tagged with a GFP-(His)8 tag, generated by PCR amplification of the coding sequence for rat P2X7 from a pcDNA-based expression vector ([Young et al., 2007]), adding XhoI and EcoRI sites at the 5′- and 3′- ends respectively, followed by restriction digestion and ligation into a zebrafish P2X4-GFP expression vector based on pEGFP-C1 (kindly provided by Eric Gouaux; [Kawate and Gouaux, 2006]) to replace the zebrafish P2X4 coding region with rP2X7. Transfected clones were grown in DMEM/F-12 with Glutamax medium supplemented with G-418 (Geneticin®, Fisher Scientific), 600 μg/ml and 150 μg/ml during selection and maintenance respectively. […] HEK-293 cells stably expressing human P2X7 ([Adinolfi et al., 2010]) were a kind gift from Elena Adinolfi.
# (§2) Cells were plated as for the calcium influx assay (Section 2.4). Culture medium was replaced with low divalent cation containing extracellular solution (ECS-LD; 147 mM NaCl, 10 mM HEPES, 13 mM Glucose, .2 mM CaCl2, 2 mM KCl. pH = 7.4 in MilliQ water) and 5 μM Yopro-1. […] The baseline was measured with a BMG Clariostar instrument for 5–10 cycles, followed by addition of ATP (or BzATP) and recording for at least 30 further cycles (approx. 1 min per data point). The collected responses were normalized to the first data-point recorded after ATP addition. The initial gradient of the dye uptake curve was used to calculate the response to ATP.
# The antagonist activity of the 17 compounds (applied at 10 µM) was assayed initially on 1321N1 astrocytoma cells stably expressing human P2X4 receptors by measuring the ATP-induced (applied at 1.2 µM) increase in Fluo-4 fluorescence due to calcium influx via P2X4, using 2 µM BX430 as a positive control (Figure 1A). […] The ATP-induced rate of uptake of YoPro-1 dye was measured upon application of at 300 µM ATP, using .1 µM A740003 as a positive control (Figure 1B).
# A small library of 16 commercially available compounds was selected according to the presence of the same scaffold as GP-25, (70% similarity, Tanimoto index) and/or presence of at least one functional group we hypothesized could contribute to GP-25 activity (e.g. carboxylic acid, halogen substituent to the aromatic ring, ester, etc.) (Compounds 18–33; Table 1). […] Although the number of compounds tested was limited by their availability via a commercial source, the numerous ‘hits’ allowed for a basic structure-relationship (SAR) analysis.
# [2] = molecular target: T2, rat P2X7 (Rattus norvegicus, UniProt Q64663); test: ATP/BzATP-induced YoPro-1 dye uptake assay, rat P2X7; assay type: cell-based; conditions: for inhibition at 30 µM: approx. % inhibition at 30 μM compound, 300 µM ATP, rat P2X7-GFP, read-out: % Inhibition at rP2X7; for antagonist activity at rat P2X7: 30 µM compound, 300 μM ATP
# T2 construct: expressed in transfected cells; host or cells: HEK-293 cells stably expressing rat P2X7-GFP (patch clamp)
# T2 sequence (Q64663 1-595): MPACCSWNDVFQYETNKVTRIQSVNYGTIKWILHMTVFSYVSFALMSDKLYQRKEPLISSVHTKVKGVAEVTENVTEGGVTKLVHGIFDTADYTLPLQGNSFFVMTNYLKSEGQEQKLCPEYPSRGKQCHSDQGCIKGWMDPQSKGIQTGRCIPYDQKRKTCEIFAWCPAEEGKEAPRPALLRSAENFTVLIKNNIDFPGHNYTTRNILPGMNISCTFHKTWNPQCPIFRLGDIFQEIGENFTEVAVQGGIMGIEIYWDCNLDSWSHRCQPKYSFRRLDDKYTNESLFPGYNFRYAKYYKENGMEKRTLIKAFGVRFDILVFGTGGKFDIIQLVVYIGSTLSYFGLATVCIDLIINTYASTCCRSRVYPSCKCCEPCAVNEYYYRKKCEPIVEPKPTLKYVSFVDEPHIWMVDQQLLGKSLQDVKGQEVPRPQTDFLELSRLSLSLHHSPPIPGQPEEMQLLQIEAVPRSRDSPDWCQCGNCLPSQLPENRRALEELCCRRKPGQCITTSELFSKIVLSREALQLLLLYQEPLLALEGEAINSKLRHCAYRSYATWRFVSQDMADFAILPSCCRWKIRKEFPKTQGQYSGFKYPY
# Method: as §1, §2
# In order to confirm GP-25 as a competitive (orthosteric) antagonist, BzATP concentration-response curves (ranging between 300 μM and .03 µM) were constructed for rat P2X7-GFP in the YoPro-1 uptake assay in the presence of increasing concentrations of GP-25 (Figure 3A).
# [3] = Solubility observations; assay type: physicochemical
# [4] = agonist concentration-response, YoPro-1 uptake
# [5] = P2X7, approx. % inhibition at 30 μM compound, 300 µM ATP, YoPro-1 uptake, 1321N1 (1-17) or HEK (18-33) cells, read-out: % Inhibition at hP2X7
# [6] = P2X7, 30 µM compound, 300 µM ATP, YoPro-1, read-out: inhibition of response at human P2X7
SMILES,"inhibition at 30 µM [1, 5] [%]",inhibition at 30 µM ([2]; YoPro-1 uptake) [%],other results
"Nc1ncnc2c1ncn2[C@@H]1O[C@H](COP(=O)(O)OP(=O)(O)OP(=O)(O)O)[C@@H](O)[C@H]1O [ATP, reference compound]",–,–,"EC50 [1, 4]: 184 µM; EC50 [2, 4]: 138 µM"
O=C(Nc1cc(S(=O)(=O)O)cc2cc(S(=O)(=O)O)cc(O)c12)c1ccccc1 [Compound 1],41,–,–
O=C(O)c1ccccc1NS(=O)(=O)c1ccc2c(c1)C(=O)c1ccccc1C2=O [Compound 2],38,–,–
Nc1nc(SCC(=O)NCCO)nc2sc3c(c12)CCCC3 [Compound 3],< 0,–,–
Cc1ccc(C(=O)C2=C(O)C(=O)N(CC3CCCO3)C2c2cccc(Oc3ccccc3)c2)o1 (stereo not drawn) [Compound 4],< 10,–,–
Cc1ccc(N2C(S)=C(C#N)C(=O)NC2c2cccs2)cc1 (stereo not drawn) [Compound 5],< 0,–,–
CC(=O)c1ccc(N/N=C(\C#N)C(=O)NCc2ccccc2)cc1 [Compound 6],< 10,–,–
CCSc1nnc(NC(=O)CSc2nnc3c4ccccc4n(C)c3n2)s1 [Compound 7],–,–,solubility [3]: very low solubility
O=C1NC(=O)C(CCc2ccncc2)(c2ccccc2)C(=O)N1 [Compound 8],< 0,–,–
CCOC(=O)CN1C(=O)S/C(=C/c2ccc(-c3ccc(C(=O)O)c(Cl)c3)o2)C1=O [Compound 10],–,–,"% Inhibition at hP2X7 ([1]; approx. % inhibition at 30 μM compound, 300 µM ATP, YoPro-1 uptake, 1321N1 (1-17) or HEK (18-33) cells): — (for compound displaying increased responses vs. control)"
C=CCN1C(=O)N/C(=C/c2ccc(-c3ccc(C(=O)O)cc3C)o2)C1=O [Compound 11],25,–,–
NC(=O)CN1C(=O)C(O)(CC(=O)c2cccc(N)c2)c2ccccc21 (stereo not drawn) [Compound 12],12,–,–
CC1(C)CC(=O)C2=C(C1)N(CC(=O)O)C1=C(C(=O)CC(C)(C)C1)C2c1ccc(OCc2ccccc2)cc1 [Compound 13],29,–,"inhibition at 30 µM [1, 6]: ≤ 25%"
COc1ccc(C2C3=C(CCCC3=O)N(CC(=O)O)C3=C2C(=O)CCC3)cc1 [Compound 14],< 0,–,"inhibition at 30 µM [1, 6]: ≤ 25%"
O=C(O)CCCC(=O)Nc1ccc(CN2CCOCC2)cc1 [Compound 15],11,–,–
O=C(O)CSc1nc(SCC(=O)O)c2c3c(sc2n1)CCCC3 [Compound 16],< 10,–,–

SMILES,"inhibition at 30 µM [1, 5] [%]",inhibition at 30 µM ([2]; YoPro-1 uptake) [%],other results
O=C(NNC(=S)CC(=O)c1cccs1)c1ccc(O)cc1 [Compound 17],< 10,–,–
CC1(C)CC(=O)C2=C(C1)NC1=C(C(=O)CC(C)(C)C1)C2c1ccccc1OCC(=O)O [Compound 18],< 0,< 0,"inhibition at 30 µM [1, 6]: ≤ 25%"
CCOC(=O)C1=C(C)NC2=C(C(=O)c3ccccc32)C1c1cc(Br)ccc1OCC (stereo not drawn) [Compound 19],< 0,13,reduction in ATP-induced dye uptake at human P2X7 [1]: completely abolished the activity
COC(=O)C1=C(C)NC2=C(C(=O)c3ccccc32)C1c1ccc(-c2cc([N+](=O)[O-])ccc2Cl)o1 (stereo not drawn) [Compound 22],69,< 0,solubility ([3]; listed as GP-50): less soluble than GP-47 or GP-25; also recorded: low solubility; reduction in ATP-induced dye uptake at human P2X7 [1]: statistically significant reduction; antagonist activity at rat P2X7 [2]: no activity
COC(=O)C1=C(C)NC2=C(C(=O)c3ccccc32)C1c1ccc(-c2ccccc2[N+](=O)[O-])o1 (stereo not drawn) [Compound 23],30,< 0,reduction in ATP-induced dye uptake at human P2X7 [1]: statistically significant reduction
CCOC(=O)C1=C(C)NC2=C(C(=O)c3ccccc32)C1c1cc(Br)c(OCc2ccc(F)cc2)c(OC)c1 (stereo not drawn) [Compound 24],12,16,–
CN1C2=C(C(=O)CCC2)C(c2cc(Cl)ccc2OCC(=O)O)C2=C1CCCC2=O [Compound 25],20,< 0,"inhibition at 30 µM [1, 6]: ≤ 25%"
O=C(O)COc1ccc(Br)cc1C1C2=C(CCCC2=O)NC2=C1C(=O)CCC2 [Compound 26],22,< 0,"inhibition at 30 µM [1, 6]: ≤ 25%"
O=C(O)COc1ccc(Cl)cc1C1C2=C(CCCC2=O)NC2=C1C(=O)CCC2 [Compound 27],16,< 0,"inhibition at 30 µM [1, 6]: ≤ 25%"
CC1(C)CC(=O)C2=C(C1)NC1=C(C(=O)c3ccccc31)C2c1cccnc1 (stereo not drawn) [Compound 28],32,< 0,reduction in ATP-induced dye uptake at human P2X7 [1]: statistically significant reduction
CCSc1nnc2c(n1)OC(c1cc(Br)ccc1OCC(=O)O)Nc1ccccc1-2 (stereo not drawn) [Compound 29],20,< 0,–
CC1(C)CC(=O)C2=C(C1)NC1=C(C(=O)c3ccccc31)C2c1cccc(O)c1 (stereo not drawn) [Compound 30],27,< 0,–
COC(=O)C1=C(C)NC2=C(C(=O)c3ccccc32)C1c1cc(OC)c(OC)c(OC)c1 (stereo not drawn) [Compound 31],29,< 10,–
CCOC(=O)C1=C(C)N(C)C2=C(C(=O)c3ccccc32)C1c1cc(OC)c(OC)c(OC)c1 (stereo not drawn) [Compound 32],55,19,reduction in ATP-induced dye uptake at human P2X7 [1]: statistically significant reduction; antagonist activity at rat P2X7 [2]: no activity
CC(=O)C1=C(C)NC(=S)NC1c1cc(Br)ccc1OCC(=O)O (stereo not drawn) [Compound 33],18,16,–
